Results reported in patent US20240041042A1, “1-(PYRIDYL)-5-AZINYLPYRAZOLE DERIVATIVES, AND THEIR USE FOR CONTROL OF UNDESIRED PLANT GROWTH” (Bayer Aktiengesellschaft, priority 2020, published 2024).
Like-named read-outs stand apart in the source and are kept apart here.

Tests used:
Type in all cases: in vivo
[1] = test system: Abutilon theophrasti (ABUTH); assay: Post-emergence herbicidal action against ABUTH; details: 80 g/ha, visual rating about 3 weeks after treatment vs untreated controls (100% = plants have died, 0% = like control plants)
How it was run: (§1)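 Values are percent visual activity (0% like control, 100% plants dead) after about 3 weeks in the greenhouse. Treatment: post-emergence spray at one-leaf stage, 600 l/ha spray volume, 0.5% additive, doses 320 g/ha or lower.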

[2] = test system: Verconica persica (VERPE); assay: Pre-emergence herbicidal action against VERPE
How it was run: (§2)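 Application rates ran to 320 g/ha or lower, with several dosages tested on the same weeds. The compound, as wettable powder or emulsion concentrate, is sprayed pre-emergence onto soil over sown seeds; greenhouse growth follows, and effect is rated visually after roughly 3 weeks.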

[3] = test system: Alopecurus myosuroides (ALOMY); assay: Pre-emergence herbicidal action against ALOMY; details: scored visually after about 3 weeks, 100% = plants have died
How it was run: as §2

Setaria viridis (SETVI) [4] = assay: Pre-emergence herbicidal action against SETVI
How it was run: as §2

Setaria viridis (SETVI) [5] = assay: Post-emergence herbicidal action against SETVI; details: dosage 80 g/ha
How it was run: as §1

Oryza sativa (ORYSA) = details: crop plant compatibility
How it was run: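 Test crops were treated 2 to 3 weeks after sowing, once they reached one leaf, by spraying compound in water with 0.5% additive at 600 l/ha. Visual scoring compared them with untreated controls roughly 3 weeks on, and appendices a, b and c denote different doses.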

[6] = test system: Pharbitis purpurea (PHBPU); assay: Pre-emergence herbicidal action against PHBPU
How it was run: as §2

Lolium rigidum (LOLRI) [7] = assay: Pre-emergence herbicidal action against LOLRI
How it was run: as §2

[8] = test system: Matricaria inodora (MATIN); assay: Pre-emergence herbicidal action against MATIN
How it was run: as §2

[9] = test system: Echinochloa crus-galli (ECHCG); assay: Pre-emergence herbicidal action against ECHCG
How it was run: as §2

[10] = test system: Polygonum convolvulus (POLCO); assay: Pre-emergence herbicidal action against POLCO
How it was run: as §2

[11] = test system: Polygonum convolvulus (POLCO); assay: Post-emergence herbicidal action against POLCO; details: dosage 80 g/ha
How it was run: as §1

[12] = test system: Abutilon theophrasti (ABUTH); assay: Pre-emergence herbicidal action against ABUTH; details: 100% = plants have died
How it was run: as §2

Avena fatua (AVEFA) [13] = assay: Post-emergence herbicidal action against AVEFA; details: 80 g/ha, visual rating about 3 weeks after treatment
How it was run: as §1

[14] = test system: Amaranthus retroflexus (AMARE); assay: Pre-emergence herbicidal action against AMARE; details: visual scoring after about 3 weeks vs untreated controls
How it was run: as §2

[15] = test system: Alopecurus myosuroides (ALOMY); assay: Post-emergence herbicidal action against ALOMY; details: 80 g/ha, visual rating about 3 weeks after treatment vs untreated controls (100% = plants have died, 0% = like control plants)
How it was run: as §1

Lolium rigidum (LOLRI) [16] = assay: Post-emergence herbicidal action against LOLRI; details: dosage 80 g/ha
How it was run: as §1

Viola tricolor (VIOTR) = assay: Pre-emergence herbicidal action against VIOTR
How it was run: as §2

[17] = test system: Amaranthus retroflexus (AMARE); assay: Post-emergence herbicidal action against AMARE; details: 80 g/ha, visual rating about 3 weeks after treatment vs untreated controls (100% = plants have died, 0% = like control plants)
How it was run: as §1

[18] = test system: Pharbitis purpurea (PHBPU); assay: Post-emergence herbicidal action against PHBPU; details: dosage 80 g/ha
How it was run: as §1

[19] = test system: Verconica persica (VERPE); assay: Post-emergence herbicidal action against VERPE; details: dosage 80 g/ha
How it was run: as §1

Avena fatua (AVEFA) [20] = assay: Pre-emergence herbicidal action against AVEFA; details: visual scoring after about 3 weeks vs untreated controls
How it was run: as §2

[21] = test system: Echinochloa crus-galli (ECHCG); assay: Post-emergence herbicidal action against ECHCG; details: dosage 80 g/ha
How it was run: as §1

[22] = 20 g/ha, effect vs untreated controls
[23] = 80 g/ha, effect in comparison to untreated controls
[24] = Dosage column 320 g/ha (title prints 3200 g/ha), scored visually after about 3 weeks

| Compound | Post-emergence action against ABUTH in % [1] [%] | Pre-emergence action against VERPE in % ([2]; dosage 320 g/ha) [%] | Pre-emergence action against ALOMY ([3]; 80 g/ha) [%] | Pre-emergence action against ALOMY ([3]; 320 g/ha) [%] | Pre-emergence action against SETVI in % (Setaria viridis (SETVI) [4]; dosage 320 g/ha) [%] | Post-emergence action against SETVI in % (Setaria viridis (SETVI) [5]) [%] | Post-emergence action against ORYSA in % (Oryza sativa (ORYSA); [22]) [%] | Post-emergence action against ORYSA in % (Oryza sativa (ORYSA); [23]) [%] | Pre-emergence action against PHBPU in % ([6]; dosage 320 g/ha) [%] | Pre-emergence action against LOLRI in % (Lolium rigidum (LOLRI) [7]; dosage 80 g/ha) [%] | Pre-emergence action against LOLRI in % (Lolium rigidum (LOLRI) [7]; dosage 320 g/ha) [%] | Pre-emergence action against MATIN in % ([8]; dosage 320 g/ha) [%] | Pre-emergence action against ECHCG in % ([9]; dosage 320 g/ha) [%] | Pre-emergence action against POLCO in % ([10]; dosage 320 g/ha) [%] | Post-emergence action against POLCO in % [11] [%] | Pre-emergence action against ABUTH [12, 24] [%] | Post-emergence action against AVEFA in % (Avena fatua (AVEFA) [13]) [%] | Pre-emergence action against AMARE in % ([14]; 80 g/ha) [%] | Pre-emergence action against AMARE in % ([14]; 320 g/ha) [%] | Post-emergence action against ALOMY in % [15] [%] | also measured |
| --- | --- | --- | --- | --- | --- | --- | --- | --- | --- | --- | --- | --- | --- | --- | --- | --- | --- | --- | --- | --- | --- |
| COC(=O)CCOC(=O)[C@@H](C)Oc1nn(-c2ccccn2)c(-c2cncc(F)c2)c1Br [Example I-73] | 80 | 100 | 90 | 100 | 100 | 80 | 0 | 10 | 90 | 100 | 100 | 90 | 90 | 90 | 90 | 90 | 80 | 100 | 100 | 100 | Pre-emergence action against SETVI in % (Setaria viridis (SETVI) [4]; dosage 80 g/ha): 90%; Pre-emergence action against POLCO in % ([10]; dosage 80 g/ha): 80%; Pre-emergence action against ABUTH ([12]; 80 g/ha, scored visually after about 3 weeks vs untreated controls, 0% = like control plants): 80%; Post-emergence action against LOLRI in % (Lolium rigidum (LOLRI) [16]): 80%; Pre-emergence action against VIOTR in % (Viola tricolor (VIOTR); 320 g/ha, Viola tricolor): 100%; Pre-emergence action against VIOTR in % (Viola tricolor (VIOTR); dosage 80 g/ha): 100%; Post-emergence action against AMARE in % [17]: 90%; Post-emergence action against PHBPU in % [18]: 90%; Post-emergence action against VERPE in % [19]: 80%; Pre-emergence action against AVEFA in % (Avena fatua (AVEFA) [20]; 320 g/ha): 80%; Post-emergence action against ECHCG in % [21]: 80% |
| O=C(O)COc1nn(-c2ccccn2)c(-c2cncc(F)c2)c1Br [Example I-84] | 80 | 100 | 80 | 100 | 100 | 80 | 0 | 10 | 90 | 90 | 100 | 90 | 100 | 90 | 90 | 80 | 80 | 80 | 100 | 80 | Pre-emergence action against VERPE in % ([2]; dosage 80 g/ha): 90%; Pre-emergence action against PHBPU in % ([6]; dosage 80 g/ha): 90%; Pre-emergence action against MATIN in % ([8]; dosage 80 g/ha): 90%; Pre-emergence action against ECHCG in % ([9]; dosage 80 g/ha): 80%; Post-emergence action against LOLRI in % (Lolium rigidum (LOLRI) [16]): 90%; Pre-emergence action against VIOTR in % (Viola tricolor (VIOTR); 320 g/ha, Viola tricolor): 100%; Pre-emergence action against VIOTR in % (Viola tricolor (VIOTR); dosage 80 g/ha): 90%; Post-emergence action against AMARE in % [17]: 90%; Post-emergence action against PHBPU in % [18]: 90%; Post-emergence action against VERPE in % [19]: 80%; Pre-emergence action against AVEFA in % (Avena fatua (AVEFA) [20]; 80 g/ha): 80%; Pre-emergence action against AVEFA in % (Avena fatua (AVEFA) [20]; 320 g/ha): 90%; Post-emergence action against ECHCG in % [21]: 80% |
